In one series the test system is Pythium Ultimum. Description: Pythium ultimum / liquid culture (seedling damping off). The class given is cell-based. As to conditions: Globisporangium ultimum, potato dextrose broth, 24° C., 2-3 days after application, read-out: disease control (inhibition of growth, photometrically).
The test system of series [1] is Monographella Nivalis(Microdochium Nivale). Description: Monographella nivalis (Microdochium nivale) / liquid culture (foot rot cereals). The class given is cell-based. As to conditions: PDB potato dextrose broth, 24° C., 4-5 days after application, read-out: disease control (inhibition of growth, photometrically). How it is done: 14 Monographella Nivalis(Microdochium Nivale)/Liquid Culture (Foot Rot Cereals) Conidia of the fungus from cryogenic storage were directly mixed into nutrient broth (PDB potato dextrose broth). After placing a DMSO solution of test compound into a 96-well microtiter plate, the nutrient broth containing the fungal spores was added. The test plates were incubated at 24° C. and the inhibition of growth was determined photometrically 4-5 days after application.

Series [2] relates to Glomerella Lagenarium(Colletotrichum Ladenarium). The series can be described thus: Glomerella lagenarium (Colletotrichum lagenarium) / liquid culture (anthracnose). The class given is cell-based. The note with it: PDB potato dextrose broth, 24° C., 3-4 days after application, read-out: disease control (inhibition of growth, photometrically). The protocol: 10 Glomerella Lagenarium(Colletotrichum Ladenarium)/Liquid Culture (Anthracnose) Conidia of the fungus from cryogenic storage were directly mixed into nutrient broth (PDB potato dextrose broth). After placing a DMSO solution of test compound into a 96-well microtiter plate, the nutrient broth containing the fungal spores was added. The test plates were incubated at 24° C. and the inhibition of growth was measured photometrically 3-4 days after application.

Another series deals with Fusarium Culmorum. The series can be described thus: microbe, parasite or virus in culture. Type of series: cell-based. The note with it: read-out: disease control (inhibition of growth, photometrically).
Series [3] relates to Mycosphaerella Graminicola(Septoria Tritici). The series can be described thus: Mycosphaerella graminicola (Septoria tritici) / liquid culture (Septoria blotch). The class given is cell-based. As to conditions: Zymoseptoria tritici, PDB potato dextrose broth, 24° C., 4-5 days after application, read-out: disease control (inhibition of growth, photometrically). The protocol: 12 Mycosphaerella Graminicola(Septoria Tritici)/Liquid Culture (Septoria Blotch) Conidia of the fungus from cryogenic storage were directly mixed into nutrient broth (PDB potato dextrose broth). After placing a DMSO solution of test compound into a 96-well microtiter plate, the nutrient broth containing the fungal spores was added. The test plates were incubated at 24° C. and the inhibition of growth was determined photometrically 4-5 days after application.

Series [4] concerns Mycosphaerella Arachidis(Cercospora Arachidicola). Description: Mycosphaerella arachidis (Cercospora arachidicola) / liquid culture (early leaf spot). The class given is cell-based. As to conditions: PDB potato dextrose broth, 24° C., 4-5 days after application, read-out: disease control (inhibition of growth, photometrically). How it is done:
11 Mycosphaerella Arachidis(Cercospora Arachidicola)/Liquid Culture (Early Leaf Spot) Conidia of the fungus from cryogenic storage were directly mixed into nutrient broth (PDB potato dextrose broth). After placing a DMSO solution of test compound into a 96-well microtiter plate, the nutrient broth containing the fungal spores was added. The test plates were incubated at 24° C. and the inhibition of growth was determined photometrically 4-5 days after application.

The next series deals with Sclerotinia Sclerotiorum. Description: Sclerotinia sclerotiorum / liquid culture (cottony rot). The class given is cell-based. The note with it: PDB potato dextrose broth, 24° C., 3-4 days after application, read-out: disease control (inhibition of growth, visually). The protocol: 17 Sclerotinia Sclerotiorum/Liquid Culture (Cottony Rot) Mycelia fragments of a newly grown liquid culture of the fungus were directly mixed into nutrient broth (PDB potato dextrose broth). After placing a (DMSO) solution of the test compounds into a microtiter plate (96-well format) the nutrient broth containing the fungal material was added. The test plates were incubated at 24° C. and the inhibition of growth was determined visually 3-4 days after application.

Series [5] concerns Botryotinia Fuckeliana(Botrytis Cinerea). The series can be described thus: Botryotinia fuckeliana (Botrytis cinerea) / liquid culture (gray mould). The class given is cell-based. The note with it: Vogels broth, 24° C., 3-4 days after application, read-out: disease control (inhibition of growth, photometrically). How it is done:
9 Botryotinia Fuckeliana(Botrytis Cinerea)/Liquid Culture (Gray Mould) Conidia of the fungus from cryogenic storage were directly mixed into nutrient broth (Vogels broth). After placing a DMSO solution of test compound into a 96-well microtiter plate, the nutrient broth containing the fungal spores was added. The test plates were incubated at 24° C. and the inhibition of growth was determined photometrically 3-4 days after application.

The next series concerns Gaeumannomyces Graminis. Description: Gaeumannomyces graminis / liquid culture (take-all of cereals). The class given is cell-based. The note with it: PDB potato dextrose broth, 24° C., 4-5 days after application, read-out: disease control (inhibition of growth, photometrically). The protocol:
13 Gaeumannomyces Graminis/Liquid Culture (Take-all of Cereals) Mycelial fragments of the fungus from cryogenic storage were directly mixed into nutrient broth (PDB potato dextrose broth). After placing a DMSO solution of test compound into a 96-well microtiter plate, the nutrient broth containing the fungal spores is added. The test plates were incubated at 24° C. and the inhibition of growth was determined photometrically 4-5 days after application.

The test system of series [6] is Thanatephorus Cucumeris(Rhizoctonia Solani). Description: Thanatephorus cucumeris (Rhizoctonia solani) / liquid culture (foot rot, damping-off). Type of series: cell-based. As to conditions: PDB potato dextrose broth, 24° C., 3-4 days after application, read-out: disease control (inhibition of growth, photometrically). The protocol: 16 Thanatephorus Cucumeris(Rhizoctonia Solani)/Liquid Culture (Foot Rot, Damping-Off) Mycelia fragments of a newly grown liquid culture of the fungus were directly mixed into nutrient broth (PDB potato dextrose broth). After placing a DMSO solution of the test compounds into a 96-well microtiter plate at an application rate of 200 ppm, the nutrient broth containing the fungal material was added. The test plates were incubated at 24° C. and the inhibition of growth was determined photometrically 3-4 days after application.

The test system of a further series is Plasmopara Viticola. Description: whole plant or invertebrate. Type of series: in vivo. The note with it: foliar, read-out: disease control.

As usually defined, the melting point is the temperature of the solid-liquid transition. Usually inhibition stands for how much of the control response was suppressed. Turning to `ON=Cc1ccc(-c2cc3c(cc2Cl)COB3O)o1` (single isomer, unassigned) [Compound 22, 5-(5-chloro-1-hydroxy-3H-2,1-benzoxaborol-6-yl)furan-2-carbaldehyde oxime], the melting point was in the range of 188 to 193 °C. Also, the inhibition at 20 ppm in the series on Pythium Ultimum is not below 80%. In addition, the inhibition at 20 ppm in [1] was not below 80%. The inhibition at 20 ppm in [2] was not below 80%.
As for `Cn1nccc1-c1cc2c(cc1F)COB2O` [Compound 10], the inhibition at 20 ppm (in the series on Fusarium Culmorum; in the series with Pythium Ultimum; in series [3]; in series [4]; in the series with Sclerotinia Sclerotiorum; in series [2]) was not below 80% throughout. The inhibition at 20 ppm in [5] is not below 80%.
Take `OB1OCc2cc(Cl)c(-c3cnco3)cc21` [Compound 18]: the inhibition at 20 ppm (in the series with Fusarium Culmorum; in the series on Pythium Ultimum; in series [1]; in series [3]; in series [4]; in the series on Sclerotinia Sclerotiorum) was not below 80% in each case. Moreover, the inhibition at 20 ppm (in series [2]; with Gaeumannomyces Graminis) was not below 80% throughout.
As for `O=Cc1ccc(-c2cc3c(cc2F)COB3O)o1` [Compound 26], the inhibition at 20 ppm (in the series on Fusarium Culmorum; in the series with Pythium Ultimum; in series [1]; in [3]; in series [4]; with Sclerotinia Sclerotiorum) was not below 80% each time. For the same molecule, the inhibition at 20 ppm in series [2] and in series [5] was not below 80% each time.
The molecule `Cn1nnc(-c2ccc3c(c2)B(O)OC3)n1` [Compound 31, 5-(1-hydroxy-3H-2,1-benzoxaborol-6-yl)-2-methyl-tetrazole] had a melting point of 209 to 210 °C. The inhibition at 20 ppm in the series with Pythium Ultimum is not below 80%. Further, the inhibition at 20 ppm in series [1] was not below 80%. Moreover, the inhibition at 20 ppm in series [4] is not below 80%. Besides, the inhibition at 20 ppm in series [2] is not below 80%.
Regarding `Cc1nc(-c2cc3c(cc2F)COB3O)oc1C` [Compound 32, 2-(5-fluoro-1-hydroxy-3H-2,1-benzoxaborol-6-yl)-4,5-dimethyl-oxazole], the melting point lay in the range of 164 to 166 °C. The inhibition at 20 ppm with Pythium Ultimum is not below 80%. Moreover, in series [1], the inhibition at 20 ppm is not below 80%.
`CCc1ccc(-c2cc3c(cc2Cl)COB3O)s1` [Compound 35]: the inhibition at 20 ppm (in the series with Fusarium Culmorum; with Pythium Ultimum; in [1]; in [3]; in series [4]; in [2]) was not below 80% in each case. For the same molecule, the inhibition at 20 ppm (in series [6]; with Gaeumannomyces Graminis) was not below 80% throughout. Moreover, the pest or weed control at 200 ppm in the series with Plasmopara Viticola was not below 80%.
`Cc1ccc(-c2cc3c(cc2Cl)COB3O)o1` [Compound 36]: the inhibition at 20 ppm (in the series on Fusarium Culmorum; in the series with Pythium Ultimum; in series [1]; in [3]; in series [4]; with Sclerotinia Sclerotiorum) was not below 80% each time. Moreover, the inhibition at 20 ppm (in series [2]; in series [6]; in series [5]; in the series with Gaeumannomyces Graminis) was not below 80% throughout. Moreover, the pest or weed control at 200 ppm in the series with Plasmopara Viticola was not below 80%.
As for `OCc1ccc(-c2cc3c(cc2Cl)COB3O)o1` [Compound 40], the inhibition at 20 ppm (with Fusarium Culmorum; in the series with Pythium Ultimum; in series [1]; in [3]; in series [4]; in the series with Sclerotinia Sclerotiorum) was not below 80% in each case. In addition, the inhibition at 20 ppm (in [2]; in series [5]; in the series on Gaeumannomyces Graminis) was not below 80% throughout.
Turning to `OB1OCc2cc(Cl)c(-c3cocc3Br)cc21` [Compound 44], the inhibition at 20 ppm (with Fusarium Culmorum; with Pythium Ultimum; in series [1]; in [3]; in series [4]; in the series with Sclerotinia Sclerotiorum) was not below 80% throughout. Moreover, the inhibition at 20 ppm (in [2]; in [6]; in series [5]; in the series on Gaeumannomyces Graminis) was not below 80% each time. Besides, in the series on Plasmopara Viticola, the pest or weed control at 200 ppm is not below 80%.
`OB1OCc2cc(Cl)c(-c3sccc3Br)cc21` [Compound 45]: the inhibition at 20 ppm (in the series on Fusarium Culmorum; in the series with Pythium Ultimum; in [1]; in [3]; in [4]; in the series with Sclerotinia Sclerotiorum) was not below 80% throughout. For the same molecule, the inhibition at 20 ppm (in [2]; in [6]; in series [5]; with Gaeumannomyces Graminis) was not below 80% each time. Moreover, in the series on Plasmopara Viticola, the pest or weed control at 200 ppm was not below 80%.
Take `OB1OCc2cc(Cl)c(-c3cc4ccccc4[nH]3)cc21` [Compound 72]: the inhibition at 20 ppm (with Fusarium Culmorum; in the series on Pythium Ultimum; in series [1]; in series [3]; in [4]; in [2]) was not below 80% throughout. The inhibition at 20 ppm (in series [6]; with Gaeumannomyces Graminis) was not below 80% each time. Besides, the pest or weed control at 200 ppm with Plasmopara Viticola is not below 80%.
Take `OB1OCc2cc(F)c(-c3ccoc3)cc21` [Compound 75]: the inhibition at 20 ppm (in the series with Fusarium Culmorum; in the series with Pythium Ultimum; in series [1]; in [3]; in [4]; in the series on Sclerotinia Sclerotiorum) was not below 80% each time. Moreover, the inhibition at 20 ppm (in [2]; in [6]; in series [5]; in the series on Gaeumannomyces Graminis) was not below 80% throughout. For the same molecule, the pest or weed control at 200 ppm with Plasmopara Viticola was not below 80%.
Consider `OB1OCc2cc(Cl)c(-c3ccoc3)cc21` [Compound 84], for which the inhibition at 20 ppm (with Fusarium Culmorum; in the series on Pythium Ultimum; in [1]; in [3]; in series [4]; in the series with Sclerotinia Sclerotiorum) was not below 80% throughout. Moreover, the inhibition at 20 ppm (in series [2]; in series [6]; in the series on Gaeumannomyces Graminis) was not below 80% each time. The pest or weed control at 200 ppm with Plasmopara Viticola was not below 80%.

Source of the values: US10314308B2, “Microbiocidal benzoxaboroles” (SYNGENTA PARTICIPATIONS AG, priority 2015, dated 2019).
